Measurements published in US4442044A, “Process for preparing monoesters and diesters of N-alkyl substituted amino methyl phosphonic acid” (priority 1983, dated 1984).

Experiments:
Assay type in all cases: in vivo
Morningglory [1] = test: post-emergent herbicidal activity, greenhouse
Method in brief: (§1)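 Post-emergence foliar spray at tabulated application rates, using aliquots of a 1.0% stock in acetone, THF or water plus ~0.4% emulsifier, applied to 2–3-week-old greenhouse plants. Plant injury was rated relative to controls roughly two and four weeks after treatment.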

Wheat = test: post-emergent herbicidal activity, greenhouse; conditions: Table II
Method in brief: as §1

Wild Buckwheat = test: post-emergent herbicidal activity, greenhouse; conditions: Table II
Method in brief: as §1

Yellow Nutsedge [2] = test: post-emergent herbicidal activity, greenhouse; conditions: Table I, 4 WAT, 11.2 kg/h
Method in brief: as §1

Lambsquarters [3] = test: post-emergent herbicidal activity, greenhouse
Method in brief: as §1

Smartweed [4] = test: post-emergent herbicidal activity, greenhouse
Method in brief: as §1

Soybean = test: post-emergent herbicidal activity, greenhouse; conditions: Table II
Method in brief: as §1

Sugar Beet = test: post-emergent herbicidal activity, greenhouse; conditions: Table II
Method in brief: as §1

Canada Thistle [5] = test: post-emergent herbicidal activity, greenhouse; conditions: Table I, 4 WAT
Method in brief: as §1

Cocklebur [6] = test: post-emergent herbicidal activity, greenhouse
Method in brief: as §1

Sorghum = test: post-emergent herbicidal activity, greenhouse; conditions: Table II
Method in brief: as §1

Velvetleaf = test: pre-emergent herbicidal activity, soil incorporation; conditions: Table III, 2 WAT, 11.2 kg/h
Method in brief: (§2)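 Emergence relative to an untreated control was counted after approximately two weeks and converted to an index of average percent control. Treatment was by admixing the active ingredient into the soil used to cover seeds or vegetative propagules, with watering through pan bottoms.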

Morningglory [7] = test: as above; conditions: Table III, 2 WAT, 11.2 kg/h
Method in brief: as §2

Yellow Nutsedge [8] = test: as above; conditions: Table III, 2 WAT, 11.2 kg/h
Method in brief: as §2

Lambsquarters [9] = test: as above; conditions: Table III, 2 WAT, 11.2 kg/h
Method in brief: as §2

Smartweed [10] = test: as above; conditions: Table III, 2 WAT, 11.2 kg/h
Method in brief: as §2

Canada Thistle [11] = test: as above; conditions: Table III, 2 WAT, 11.2 kg/h
Method in brief: as §2

Downy Brome = test: as above; conditions: Table III, 2 WAT, 11.2 kg/h
Method in brief: as §2

Cocklebur [12] = test: as above; conditions: Table III, 2 WAT, 11.2 kg/h
Method in brief: as §2

Barnyardgrass = test: as above; conditions: Table III, 2 WAT, 11.2 kg/h
Method in brief: as §2

Quackgrass = test: as above; conditions: Table III, 2 WAT, 11.2 kg/h
Method in brief: as §2

Johnsongrass = test: as above; conditions: Table III, 2 WAT, 11.2 kg/h
Method in brief: as §2

CC(C#N)OP(=O)(O)CNCC(=O)OCCCl (stereo not shown) [Example 7, glycine, N-[[(1-cyanoethoxy)hydroxyphosphinyl]methyl], 2-chloroethyl ester]
post-emergent herbicidal activity index (Morningglory [1]; Table I, 4 WAT, 5.6 kg/h): 2 (50-74% control) | post-emergent herbicidal activity index (Morningglory [1]; Table I, 4 WAT, 11.2 kg/h): 2 (50-74% control) | post-emergent herbicidal activity index (Morningglory [1]; Table II, 2 WAT, 0.01 kg/h): 1 (25-49% control) | post-emergent herbicidal activity index (Morningglory [1]; Table II, 4 WAT, 0.06 kg/h): 2 (50-74% control) | post-emergent herbicidal activity index (Morningglory [1]; Table II, 4 WAT, 0.28 kg/h): 1 (25-49% control) | post-emergent herbicidal activity index (Morningglory [1]; Table II, 4 WAT, 1.12 kg/h): 2 (50-74% control) | post-emergent herbicidal activity index (Morningglory [1]; Table II, 4 WAT, 5.6 kg/h): 2 (50-74% control) | post-emergent herbicidal activity index (Wheat; 2 WAT, 0.01 kg/h): 0 (0-24% control) | post-emergent herbicidal activity index (Wheat; 4 WAT, 0.06 kg/h): 1 (25-49% control) | post-emergent herbicidal activity index (Wheat; 4 WAT, 0.28 kg/h): 3 (75-99% control) | post-emergent herbicidal activity index (Wheat; 4 WAT, 1.12 kg/h): 3 (75-99% control) | post-emergent herbicidal activity index (Wheat; 4 WAT, 5.6 kg/h): 4 (100% control) | post-emergent herbicidal activity index (Wild Buckwheat; 2 WAT, 0.01 kg/h): 0 (0-24% control) | post-emergent herbicidal activity index (Wild Buckwheat; 4 WAT, 0.06 kg/h): 0 (0-24% control) | post-emergent herbicidal activity index (Wild Buckwheat; 4 WAT, 0.28 kg/h): 2 (50-74% control) | post-emergent herbicidal activity index (Wild Buckwheat; 4 WAT, 1.12 kg/h): 2 (50-74% control) | post-emergent herbicidal activity index (Wild Buckwheat; 4 WAT, 5.6 kg/h): 2 (50-74% control) | post-emergent herbicidal activity index (Yellow Nutsedge [2]): 3 (75-99% control) | post-emergent herbicidal activity index (Lambsquarters [3]; Table I, 4 WAT, 5.6 kg/h): 4 (100% control) | post-emergent herbicidal activity index (Lambsquarters [3]; Table I, 4 WAT, 11.2 kg/h): 3 (75-99% control) | post-emergent herbicidal activity index (Lambsquarters [3]; Table II, 2 WAT, 0.01 kg/h): 1 (25-49% control) | post-emergent herbicidal activity index (Lambsquarters [3]; Table II, 4 WAT, 0.06 kg/h): 0 (0-24% control) | post-emergent herbicidal activity index (Lambsquarters [3]; Table II, 4 WAT, 0.28 kg/h): 4 (100% control) | post-emergent herbicidal activity index (Lambsquarters [3]; Table II, 4 WAT, 1.12 kg/h): 2 (50-74% control) | post-emergent herbicidal activity index (Lambsquarters [3]; Table II, 4 WAT, 5.6 kg/h): 2 (50-74% control) | post-emergent herbicidal activity index (Smartweed [4]; Table I, 4 WAT, 5.6 kg/h): 4 (100% control) | post-emergent herbicidal activity index (Smartweed [4]; Table I, 4 WAT, 11.2 kg/h): 4 (100% control) | post-emergent herbicidal activity index (Smartweed [4]; Table II, 2 WAT, 0.01 kg/h): 0 (0-24% control) | post-emergent herbicidal activity index (Smartweed [4]; Table II, 4 WAT, 0.06 kg/h): 1 (25-49% control) | post-emergent herbicidal activity index (Smartweed [4]; Table II, 4 WAT, 0.28 kg/h): 4 (100% control) | post-emergent herbicidal activity index (Smartweed [4]; Table II, 4 WAT, 1.12 kg/h): 3 (75-99% control) | post-emergent herbicidal activity index (Smartweed [4]; Table II, 4 WAT, 5.6 kg/h): 4 (100% control) | post-emergent herbicidal activity index (Soybean; 2 WAT, 0.01 kg/h): 0 (0-24% control) | post-emergent herbicidal activity index (Soybean; 4 WAT, 0.06 kg/h): 0 (0-24% control) | post-emergent herbicidal activity index (Soybean; 4 WAT, 0.28 kg/h): 1 (25-49% control) | post-emergent herbicidal activity index (Soybean; 4 WAT, 1.12 kg/h): 2 (50-74% control) | post-emergent herbicidal activity index (Soybean; 4 WAT, 5.6 kg/h): 3 (75-99% control) | post-emergent herbicidal activity index (Sugar Beet; 2 WAT, 0.01 kg/h): 0 (0-24% control) | post-emergent herbicidal activity index (Sugar Beet; 4 WAT, 0.06 kg/h): 0 (0-24% control) | post-emergent herbicidal activity index (Sugar Beet; 4 WAT, 0.28 kg/h): 4 (100% control) | post-emergent herbicidal activity index (Sugar Beet; 4 WAT, 1.12 kg/h): 3 (75-99% control) | post-emergent herbicidal activity index (Sugar Beet; 4 WAT, 5.6 kg/h): 4 (100% control) | post-emergent herbicidal activity index (Canada Thistle [5]; 5.6 kg/h): 2 (50-74% control) | post-emergent herbicidal activity index (Canada Thistle [5]; 11.2 kg/h): 2 (50-74% control) | post-emergent herbicidal activity index (Cocklebur [6]; Table I, 4 WAT, 5.6 kg/h): 4 (100% control) | post-emergent herbicidal activity index (Cocklebur [6]; Table I, 4 WAT, 11.2 kg/h): 3 (75-99% control) | post-emergent herbicidal activity index (Cocklebur [6]; Table II, 2 WAT, 0.01 kg/h): 0 (0-24% control) | post-emergent herbicidal activity index (Cocklebur [6]; Table II, 4 WAT, 0.06 kg/h): 0 (0-24% control) | post-emergent herbicidal activity index (Cocklebur [6]; Table II, 4 WAT, 0.28 kg/h): 2 (50-74% control) | post-emergent herbicidal activity index (Cocklebur [6]; Table II, 4 WAT, 1.12 kg/h): 2 (50-74% control) | post-emergent herbicidal activity index (Cocklebur [6]; Table II, 4 WAT, 5.6 kg/h): 3 (75-99% control) | post-emergent herbicidal activity index (Sorghum; 2 WAT, 0.01 kg/h): 0 (0-24% control) | post-emergent herbicidal activity index (Sorghum; 4 WAT, 0.06 kg/h): 2 (50-74% control) | post-emergent herbicidal activity index (Sorghum; 4 WAT, 0.28 kg/h): 2 (50-74% control) | post-emergent herbicidal activity index (Sorghum; 4 WAT, 1.12 kg/h): 2 (50-74% control) | post-emergent herbicidal activity index (Sorghum; 4 WAT, 5.6 kg/h): 3 (75-99% control) | pre-emergent herbicidal activity index (Velvetleaf): 0 (1-24% control) | pre-emergent herbicidal activity index (Morningglory [7]): 0 (1-24% control) | pre-emergent herbicidal activity index (Yellow Nutsedge [8]): 0 (1-24% control) | pre-emergent herbicidal activity index (Lambsquarters [9]): 0 (1-24% control) | pre-emergent herbicidal activity index (Smartweed [10]): 0 (1-24% control) | pre-emergent herbicidal activity index (Canada Thistle [11]): 1 (25-49% control) | pre-emergent herbicidal activity index (Downy Brome): 0 (1-24% control) | pre-emergent herbicidal activity index (Cocklebur [12]): 0 (1-24% control) | pre-emergent herbicidal activity index (Barnyardgrass): 0 (1-24% control) | pre-emergent herbicidal activity index (Quackgrass): 0 (1-24% control) | pre-emergent herbicidal activity index (Johnsongrass): 1 (25-49% control)
